Test results taken from publication PMC10707468, “Pharmacokinetics of Novel Dopamine Transporter Inhibitor CE-123 and Modafinil with a Focus on Central Nervous System Distribution” (International Journal of Molecular Sciences, 2023).
Where “and” joins values, the source holds several entries; their conditions need not be identical. Equal values may be shown once. Read-outs that look alike come from different tables or passages of the source.

Assays:
[1] = system: cerebEND in vitro model of the blood–brain barrier; test: In vitro Transwell blood-brain barrier model based on mouse cell line cerebEND; type: in vitro ADME; conditions: for Clin (rate of BBB transport) / Clout (rate of BBB transport): parameter used in simulation; for Pe rat: scaled with BBB surface area 180 cm2, similar permeability in rat assumed
Description: Research on modafinil analogs has gained significant momentum in recent decades due to the compound’s unique pharmacological properties and potential therapeutic applications. The primary objectives of these studies were to identify modafinil analogs that can address a wide range of cognitive deficits and neurological conditions effectively, with a reduced risk of side effects. In our previous study, we reported a series of modafinil analogs with higher DA reuptake inhibition activity and higher selectivity for the DAT in comparison to modafinil. These improvements were achieved by making strategic modifications involving the substitution of the carboxamide moiety with five- and six-membered aromatic heterocycles. […] In addition, Kristofova et al. (2018) have used the mouse cell line cerebEND as an in vitro model to study the ability of CE-123 to cross an in vitro model of the blood–brain barrier (BBB). […] Yet, due to significant differences in the plasma pharmacokinetic (PK) profiles, governed primarily by differences in metabolism, direct comparison between two compounds after single IP dosing could be misleading.
(§1) Table S4. Parameters used in simulation exercise.
(§2) Fraction of un bound in unitless 0.252 0.797
(§3) Rate of BBB transport parameters*
(§4) Ext ent of BBB transport and intra-brain dist ribution
(§5) Unbound brain-t o-plasma unitless 0.46 0.097 concentrati on rat io, Kp,uu,brain
(§6) Unbound volume of mL/g brain 5.21 3.73 distribution in brain, Vu,brain
(§7) Additional parameters used
(§8) Infusi on rate mg/h 0.05 1.0
(§9) * Data of blood-brain barrier per meation of 100 µM CE-123 and modafinil across an in vitro Transw ell model based on mouse cell line cerebEND were included in the simulation. Experimental procedures were published previously The permeability coefficients w ere calculated according to the clearance principle deduct ing blank inserts without cells.
(§10) **Similar apparent permeability in human BBB cell culture model and rat endot helial cells was assumed.

[2] = Systemic pharmacokinetic parameters used in simulation exercise; type: in vivo, rat; conditions: parameter used in simulation; for clearance / Vd: plasma; for clearance: rat 0.3 kg, read-out: Systemic clearance, CL (converted); for Vd: rat, read-out: Apparent volume of distribution, Vd
Procedure: (§11) In order to minimize the usage of animals and gain high confidence in the tissue distribution, a 4 h constant intravenous infusion study was designed based on the systemic pharmacokinetic parameters determined elsewhere. The catheters were surgically implanted a day before the PK experiment. The rats (n = 3 per compound) were then individually placed into a CMA 120 system (CMA, Solna, Sweden). […] A dose of 20 mg/kg was administered as a combination of an initial short 10 min infusion as a loading dose followed by a constant infusion up to 4 h, targeting a steady-state total plasma concentration of around 1000 ng/mL for each compound (based on the pilot study results). Blood was collected into heparinized Eppendorf tubes via a femoral artery catheter at 0 (before infusion starts) 1, 2, 3, and 4 h after the infusion started and immediately centrifuged at 10,000 rpm for 5 min at +4 °C. Plasma was then collected and kept at −20 °C. At 4 h, the rats were anesthetized via inhalation of 2.5% isoflurane (Abbot Scandinavia, Solna, Sweden), balanced with 1.5 L/min oxygen, after which the terminal blood and tissue samples were collected. […] The tissue samples (brain, spinal cord, liver, and kidney) were rapidly removed, pre-weighed into a 2 mL hard tissue homogenizing tube with mini-beads, and subsequently homogenized in 2 volumes of MQ water using a 4-Place Bead Mill Homogenizer (VWR, Stockholm, Sweden) at the maximal speed for 2 min and thereafter kept at +4 °C. The plasma and tissue homogenate samples were stored at −20 °C until LC–MS analysis.
The simulation was performed at a given initial total plasma concentration to be equal to the steady-state concentrations obtained in the neuroPK study, utilizing the parameters listed in Supplementary Table S4. A two-compartment model consisting of blood and brain compartments with a focus on the unbound concentrations was used for the simulation exercise (see details on the structure of the model in Supplementary Figure S5). The representative unbound plasma and brain profiles are presented in Supplementary Figure S6.
as §1, §2, §3, §4, §5, §6, §7, §8, §9, §10

[3] = In vivo rat tissue biodistribution / neuroPK study, 4 h intravenous constant infusion; design: species or system Sprague-Dawley rats; conditions: rat; for Kp at 4 h / concentration at 4 h: Sprague-Dawley; for Kp at 4 h: brain (whole brain homogenate) relative to plasma, steady state, read-out: Total brain-to-plasma concentration ratio, Kp,brain; for concentration at 4 h: intravenous, 20 mg/kg; for order of Kp,tissue from highest to lowest: total tissue-to-plasma concentration ratio
Procedure: The results are summarized in Figure 4 and Table S2 within Supplementary Materials.
as §11
For all the rat plasma and CSF samples, an aliquot of 50 µL was spiked with 50 µL of 4% PA in water containing the IS solution to disrupt the drug–protein binding. For all rat tissue samples (brain, spinal cord, liver, and kidney), an aliquot of 50 µL was spiked with 50 µL ice-cold ACN containing the IS solution for protein precipitation. The samples were vortexed and spun down for 10 min (3000× g, 4 °C) and 25 µL of clear supernatant was diluted with 225 µL 0.1% FA in water to achieve 10% of ACN in the solution. SPE clean-up was performed using an Oasis PRiME HLB µElution 96-well plate, 3 mg (Waters Corporation, Vienna, Austria). The SPE cartridges were preconditioned and equilibrated with 1 × 200 µL ACN and 0.1% FA in water each. The samples were loaded onto the cartridges and washed with 2 × 200 µL 0.1% FA in water and 1 × 200 µL ACN/0.1% FA in water 10:90 (v:v). The analytes were eluted from the SPE cartridge into a collection plate with 2 × 25 µL ACN/0.1% FA in water 70:30 (v:v). All the samples were diluted with 50 µL of 0.1% FA in water and 10 µL of sample was injected onto the LC–HRMS system.
All samples, blanks, standards, and quality control samples in the respective matrices were analyzed on a UHPLC system (Dionex UltiMate 3000 RSLC series system, Thermo Fisher Scientific, Inc., Dreieich, Germany) coupled with a high-resolution mass spectrometer (maXis HD Q-TOF, Bruker Daltonics, Bremen, Germany) equipped with a heated electrospray ionization (ESI) source. Reversed-phase chromatographic separation was performed on a Kinetex Phenyl-Hexyl column (2.6 µm, 2.1 × 50 mm, Phenomenex, Torrance, CA, USA), equipped with a precolumn (2.6 µm, Phenomenex, Torrance, CA, USA), at a flow rate of 0.4 mL/min. Eluent A was water containing 0.1% FA and eluent B ACN. A multi-step gradient was optimized as follows: the initial mobile phase composition (5% eluent B) was held constant for 1 min, followed by a linear increase to 30% eluent B until minute 1.5, to 40% eluent B until minute 5.5, and to 95% eluent B until minute 6. After a hold time of 2 min, the column was re-equilibrated for 2.5 min at the initial conditions (5% eluent B). The column compartment and the autosampler were maintained at 40 °C and at 8 °C, respectively. […]

[4] = 4 h iv constant infusion 20 mg/kg
[5] = brain, 4 h iv constant infusion 20 mg/kg, n=3, read-out: Total concentration in brain
[6] = kidney, 4 h iv constant infusion 20 mg/kg, n=3, read-out: Total concentration in kidney
[7] = liver, 4 h iv constant infusion 20 mg/kg, n=3, read-out: Total concentration in liver
[8] = plasma, 4 h iv constant infusion 20 mg/kg, n=3, read-out: Total concentration in plasma
[9] = plasma, 4 h iv constant infusion 20 mg/kg, read-out: Total drug concentration in plasma, Ctot,plasma
[10] = plasma, 4 h iv constant infusion 20 mg/kg, read-out: Total steady-state plasma concentration, Cplasma,ss
[11] = plasma, mean, in vivo study, 4 h iv infusion 20 mg/kg, read-out: Unbound-drug concentration in plasma, Cu,plasma
[12] = spinal cord, 4 h iv constant infusion 20 mg/kg, n=3, read-out: Total concentration in spinal cord

Structure (SMILES)	Clin (rate of BBB transport) [1]	Clout (rate of BBB transport) [1]	Pe rat [1]	Systemic clearance unbound, Clu [2]	clearance [2]	Vd [2]	Kp at 4 h [3, 4]	concentration at 4 h [3, 5]	concentration at 4 h [3, 6]	concentration at 4 h [3, 7]	concentration at 4 h [3, 8]	concentration at 4 h [3, 9]	concentration at 4 h [3, 10]	concentration at 4 h [3, 11]	concentration at 4 h [3, 12]	Total concentration in CSF ([3]; cisterna magna, 4 h iv infusion 20 mg/kg, single rats)	order of Kp,tissue from highest to lowest [3]	concentration at 4 h ([3]; CSF, cisterna magna, 4 h iv infusion 20 mg/kg, single rats, read-out: Total concentration in CSF)	concentration at 4 h ([3]; brain, single sample, rat brain after 4 h iv infusion 20 mg/kg, read-out: concentration in rat brain sample (Figure S4 chromatogram))
[O-][S@@+](Cc1cncs1)C(c1ccccc1)c1ccccc1 [S-CE-123]	0.033 L/h	0.071 L/h	0.545 mL/min	0.046 L/h	3.07 mL/min	0.232 L	0.61 ± 0.1	820 ng/g	1780 ng/g	2730 ng/g	1050 ng/mL	3.35 µM	4.15 ± 2.2 µM	0.839 µM	1240 ng/g	570 ng/mL and 104 ng/mL	liver > kidneys > spinal cord > brain		
NC(=O)C[S@@+]([O-])C(c1ccccc1)c1ccccc1 [R-modafinil, reference compound]	0.025 L/h	0.261 L/h	0.422 mL/min	1.194 L/h	25 mL/min	1.02 L	0.29 ± 0.013	448 ng/g	2540 ng/g	2170 ng/g	1010 ng/mL	3.69 µM	5.57 ± 0.649 µM	2.91 µM	733 ng/g		kidneys > liver > spinal cord > brain	784 ng/mL	471 ng/mL
